Consider 8 compounds from article PMC9311596, “Main Bioactive Components and Their Biological Activities from Natural and Processed Rhizomes of Polygonum sibiricum” (Antioxidants, 2022).

The test system of test [1] is LPS-induced NO production in RAW264.7 macrophages. In words: Nitric oxide inhibitory assay. The class given is cell-based, Murine. The settings on record: Mus musculus. As to the method:
Murine RAW264.7 macrophages were cultured in DMEM medium containing 10% fetal bovine serum (FBS) and 1% penicillin at 37 °C, 5% CO2 [37].
The NO inhibitory assay was performed based on the reference method.

A short description of test [2]: DPPH radical scavenging assay. Particulars: for EC50: isolated components, read-out: SC50 DPPH. The procedure:
(§1) This assay was determined using the procedure previously reported.
(In general: DPPH is a stable violet radical that fades when it is reduced.)

Test [3] can be described thus: ABTS radical scavenging assay. Particulars: for EC50: isolated components, read-out: SC50 ABTS. As to the method: as §1
A short description of test [4]: Superoxide radical scavenging assay. Particulars: isolated components; read-out: SC50 Superoxide. As to the method:
This assay was determined using the method previously reported.

Test [5] in a line: Ferric reducing antioxidant power (FRAP) assay. Particulars: for FRAP (TE): isolated components, mM Trolox equivalents per gram. As to the method: The FRAP assay was determined using the method previously reported.
In test [6] the target is T1, acetylcholinesterase (AChE) (Electrophorus electricus, UniProt O42275).
T1 construct: purchased Sigma-Aldrich
Put plainly: biochemical. As to the method: The AChE inhibitory assay was performed according to the previous method, with slight modifications. First, 1 mL of DTNB (15 mM) solution, 1 mL of AChI (15 mM) solution, 1 mL of AChE (0.2 U/mL), and various concentrations of PS (50–400 μg/mL) were prepared using sodium phosphate buffer (0.1 M, pH 8.0). The reaction was started by adding 140 μL PBS, 10 μL DTNB solution, 15 μL AChE solution and 20 μL sample. The reaction mixture was incubated at 20 °C in the dark for 10 min, and 10 μL of AChI solution was added. Finally, the reaction mixture was incubated at 20 °C for 10 min, and the absorbance was measured at 405 nm.

A further test deals with iNOS. In words: Western blot analysis of iNOS. Type of test: cell-based, Murine. Particulars: 12.5, 25, and 50 µM, LPS 100 ng/mL, RAW264.7. As to the method: (§2) The Western blot analysis was performed using the reference method with slight modifications. RAW264.7 cells were seeded in 6 cm dishes for 24 h. The cells were treated with sample (12.5, 25, and 50 µM) and LPS (100 ng/mL). After treatment with drugs, cells were washed with cold PBS, and proteins were collected with lysis buffer containing protein inhibitors. After quantification, equal amounts of protein samples were separated using 5–8% SDS-polyacrylamide gels. The proteins were transferred to the membrane by electrophoresis. The membranes were soaked in 2% BSA blocking buffer for 2 h and then washed 2–3 times with TBST. Next, the membranes were visualized with primary antibody (iNOS, TNF-α, and IL-6) and soaked for 1 day. The next day, membranes were washed again with TBST 2–3 times and then soaked with secondary antibody for 2 h. Finally, immuno-reactivity was detected with ECL reagents, exposed with a luminometer photometer, and quantified with Image J.
(In western blotting, separated proteins are transferred to a membrane and probed.)

The subject of a further test is TNF-α. In words: Western blot analysis of TNF-α. The class given is cell-based, Murine. The settings on record: 12.5, 25, and 50 µM, LPS 100 ng/mL, RAW264.7. The procedure: as §2
The subject of a further test is IL-6. Put plainly: Western blot analysis of IL-6. Type of test: cell-based, Murine. Particulars: 12.5, 25, and 50 µM, LPS 100 ng/mL, RAW264.7. The procedure: as §2
Where [7] appears, read: isolated compounds, LPS-induced NO, RAW264.7, read-out: Nitric Oxide IC50.
Setting [8] is: isolated compounds, read-out: AChE IC50 (converted).
Setting [9] is: solvent extracts, concentration causing 50% free radical scavenging.
Where [10] appears, read: RAW264.7, read-out: Nitric Oxide IC50.

Entries after “also recorded” stand apart in the source; their conditions may differ. Where two headings read alike, the source gives them in different places.

A word on the IC50: it is the concentration that gives 50% inhibition.

T1 sequence (O42275 24-633): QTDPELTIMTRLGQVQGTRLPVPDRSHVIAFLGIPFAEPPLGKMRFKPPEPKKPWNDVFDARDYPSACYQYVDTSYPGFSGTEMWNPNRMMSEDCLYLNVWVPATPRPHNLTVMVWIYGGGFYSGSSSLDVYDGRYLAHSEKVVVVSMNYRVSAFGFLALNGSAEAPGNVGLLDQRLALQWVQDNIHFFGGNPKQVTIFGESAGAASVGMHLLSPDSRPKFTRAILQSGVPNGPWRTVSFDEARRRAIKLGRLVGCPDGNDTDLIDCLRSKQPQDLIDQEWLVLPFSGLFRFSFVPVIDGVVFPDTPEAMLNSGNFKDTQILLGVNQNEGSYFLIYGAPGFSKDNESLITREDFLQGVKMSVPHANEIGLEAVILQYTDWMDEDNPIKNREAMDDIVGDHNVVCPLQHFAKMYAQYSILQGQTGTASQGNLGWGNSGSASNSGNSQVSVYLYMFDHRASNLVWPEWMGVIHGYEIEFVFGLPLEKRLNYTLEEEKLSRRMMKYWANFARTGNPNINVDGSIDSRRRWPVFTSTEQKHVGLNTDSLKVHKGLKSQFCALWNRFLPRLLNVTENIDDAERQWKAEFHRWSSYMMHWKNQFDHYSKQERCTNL

As for `O=c1c(O)c(-c2ccc(O)c(O)c2)oc2cc(O)cc(O)c12` [Quercetin, quercetin, reference compound], the IC50 in test [1] (setting [7]) was 18.3 ± 0.54 µM; in test [1] (solvent extracts, LPS-induced NO, RAW264.7, read-out: Nitric Oxide IC50), 7.52 ± 0.25 µg/mL.
As for `COc1cc2ccc(=O)oc2cc1O` [Scopoletin (2), scopoletin], the figures for the EC50 in [2], in [3] and in [4] were greater than 400 µM, 91.3 ± 3.36 µM and greater than 400 µM, respectively. Further, the “FRAP (TE)” value in test [5] is listed as 2892.97 ± 19.18 mM/g. For the same compound, the IC50 is 32.4 ± 2.05 µM in test [6] and 36.3 ± 4.65 µM in [1] (setting [7]).
Take `O=Cc1ccc(CO)o1` [5-HMF (1), 5-hydroxymethylfurfural]: the EC50 in test [2], in test [3] and in [4] was greater than 400 µM each time. The “FRAP (TE)” value in test [5] was found to be 26.70 ± 0.97 mM/g. Moreover, the values for the IC50 in test [6] (setting [8]) and in test [1] (setting [7]) were 81.5 ± 11.1 µM and 34.9 ± 8.8 µM, respectively.
Turning to `Cc1cc(C(C)(C)C)c(O)c(C(C)(C)C)c1` [BHT, Butylated hydroxytoluene, reference compound], the EC50 in test [2] amounted to 192 ± 8.94 µM; in test [3], 100 ± 7.26 µM. Moreover, the “SC50 DPPH” value in [2] (setting [9]) was determined as 35.54 ± 0.64 µg/mL. Moreover, the “SC50 ABTS” value in [3] (setting [9]) was found to be 20.57 ± 0.22 µg/mL. For the same compound, the “FRAP (TE)” value in test [5] is listed as 2896.93 ± 21.19 mM/g. The “TE FRAP” value in test [5] (solvent extracts, mM Trolox equivalents per gram of fresh extract) was determined as 3005.93 ± 13.10 mM/g.
As to `C[C@@H]1O[C@@H](OC[C@H]2O[C@@H](Oc3c(-c4ccc(O)c(O)c4)oc4cc(O)cc(O)c4c3=O)[C@H](O)[C@@H](O)[C@@H]2O)[C@H](O)[C@H](O)[C@H]1O` [Rutin (5), rutin], the EC50 in test [2] stood at 5.6 ± 0.34 µM; in [3], 15.4 ± 0.25 µM; in test [4], 175 ± 3.02 µM. In addition, the “FRAP (TE)” value in test [5] worked out at 2221.33 ± 5.02 mM/g. Further, the half-inhibitory concentration (IC50) amounted to 33.1 ± 5.43 µM in test [6] and 9.89 ± 1.36 µM in test [1] (setting [10]). Also, in the test with iNOS, the “inhibition of iNOS production” value is “strongest inhibitory effect among all isolated compounds; also recorded: significantly inhibited iNOS production in a concentration-dependent manner”. Besides, the “inhibition of TNF-α production” value in the test on TNF-α was “significantly inhibited the production of TNF-α and IL-6 in a concentration-dependent manner”. Further, in the test with IL-6, the “inhibition of IL-6 production” value is “significantly inhibited the production of TNF-α and IL-6 in a concentration-dependent manner”.
For `O=C(/C=C/c1ccc(O)c(O)c1)O[C@@H]1C[C@](O)(C(=O)O)C[C@@H](O)[C@H]1O` [Chlorogenic acid, chlorogenic acid, reference compound], the IC50 in [6] (setting [8]) is 68.2 ± 2.9 µM; in test [6] (solvent extracts, read-out: AChE IC50 (converted)) it was 65.7 µM.
As to `O=c1c(O[C@@H]2O[C@H](CO)[C@@H](O)[C@H](O)[C@H]2O)c(-c2ccc(O)c(O)c2)oc2cc(O)cc(O)c12` [Isoquercetin (3), isoquercetin], the EC50 came out at 12.6 ± 3.21 µM in test [2], 22.7 ± 1.17 µM in [3] and 180 ± 4.43 µM in [4]. In addition, the “FRAP (TE)” value in test [5] was 3898.88 ± 23.23 mM/g. Besides, the results for the IC50 in [6] and in test [1] (setting [10]) were 23.1 ± 3.15 µM and 17 ± 1.28 µM, respectively. In addition, the “inhibition of iNOS production” value with iNOS is “significantly inhibited iNOS production in a concentration-dependent manner”. For the same compound, the “inhibition of TNF-α production” value with TNF-α was “significantly inhibited the production of TNF-α and IL-6 in a concentration-dependent manner”. Further, the “inhibition of IL-6 production” value in the test on IL-6 was “significantly inhibited the production of TNF-α and IL-6 in a concentration-dependent manner”.
As to `O=c1c(O[C@@H]2O[C@H](CO)[C@H](O)[C@H](O)[C@H]2O)c(-c2ccc(O)c(O)c2)oc2cc(O)cc(O)c12` [Hyperoside (4), hyperoside], the EC50 in test [2] was determined as 12.5 ± 4.02 µM; in [3] it was 29.3 ± 0.51 µM; in [4], 172 ± 3.8 µM. Moreover, the “FRAP (TE)” value in [5] came out at 3246.93 ± 31.92 mM/g. Also, the IC50 in test [6] came to 121 ± 10.7 µM; in [1] (setting [10]) it was 18.9 ± 1.68 µM. Further, in the test on iNOS, the “inhibition of iNOS production” value is “significantly inhibited iNOS production in a concentration-dependent manner”. In addition, the “inhibition of TNF-α production” value in the test on TNF-α was “significantly inhibited the production of TNF-α and IL-6 in a concentration-dependent manner”. Moreover, in the test with IL-6, the “inhibition of IL-6 production” value is “significantly inhibited the production of TNF-α and IL-6 in a concentration-dependent manner”.
